In brackets after ≈: the same amount, converted by molar mass. Read-outs that look alike come from different tables or passages of the source. Values belong to the molecule of their own block, whether it stands above or below them.
Assays:
[1] = tested on: P. falciparum CQ-resistant (W2 clone); test: anti-HRPII test, P. falciparum blood parasites, CQ-resistant W2 clone; type: cell-based; conditions: Plasmodium falciparum
Description: (§1) A CQ-resistant and mefloquine-sensitive P. falciparum, clone W2 [27] and a CQ-sensitive strain 3D7, were cultivated as described, in human erythrocytes (A^+), in complete medium (RPMI 1640 supplemented with 10% human sera blood group A^+) and tests followed a protocol slightly modified as follows. Human erythrocytes (A^+) and serum blood group A^+ were kindly donated by Center of Hemotherapy and Hemathology of Minas Gerais (HEMOMINAS - http://www.hemominas.mg.gov.br), under the mutual cooperation term number 18/09.
(§2) The ring-stage parasites sorbitol-synchronized were adjusted for parasitemia and hematocrit, according to the specifications for the test, then distributed in 96-well microtiter plates (Corning, Santa Clara, CA, EUA), previously prepared and containing the diluted compounds in dimethyl sulfoxide (DMSO) (0.02%) aqueous stock solution, in triplicates for each dose. CQ, the standard antimalarial, was tested in parallel each time. The drug activity was determined in relation to parasite cultures in complete medium and no drugs, as described. Parasite growth was measured through the anti-HRPII test in cultures adjusted to 1.5% hematocrit and 0.05% parasitemia, with monoclonal antibodies (MPFM-55A and MPFG-55P) commercially acquired (ICLLAB®, USA) and the TMB chromogen (3,3′,5,5′-Tetramethylbenzidine) from KPL (Gaithersburg, MD, EUA). The reaction was stopped with […] of 1 M sulfuric acid, absorbance read at 450 nm in a spectrophotometer (SpectraMax340PC384, Molecular Devices). Sigmoid dose-response curves were generated with curve-fitting software (Microcal Origin Software 5.0, Inc.), used to determine the 50% inhibitory concentration of the parasite growth (IC50), and activity calculated by comparing growth in drug-exposed cultures and the drug-free control cultures.

[2] = tested on: P. falciparum CQ-sensitive (3D7 strain); test: anti-HRPII test, P. falciparum blood parasites, CQ-sensitive 3D7 strain; type: cell-based; conditions: Plasmodium falciparum
Description: as §1, §2

[3] = tested on: normal kidney glomerular cells from green monkey (BGM); test: Cytotoxicity test (MTT) against BGM cells; type: cell-based; conditions: for MDL50 (µg/mL) Mean ± SD: 24 h
Procedure: The cytotoxicity tests were performed against normal kidney glomerular cells from green monkey (BGM) as follows. The cells were cultured under a 5% CO2 atmosphere, at 37°C, in 75 cm^2 sterile flasks in RPMI 1640 medium supplemented with 10% heat-inactivated fetal calf serum, and 40 mg/L gentamicin. When confluent, the cell monolayer was washed with culture medium, trypsinized, distributed in flat-bottomed 96-well plates (5×10^3 cells/well), and incubated for 18 h at 37°C for cell adherence. The compounds (20 µL) were added to the cell plates, at various concentrations (1000 to1 µg/mL), incubated for 24 h, then received a solution of MTT [3-(4,5-dimethylthiazol-2-yl)-2,5-diphenyltetrazolium bromide] (5 mg/mL; 20 µL/well), followed by another 3 h incubation, to evaluate mitochondrial viability. The supernatants were removed, DMSO added to each well (100 µL), carefully mixed to solubilize the formazan crystals. The optical density was determined at 570 and 630 nm (background) (SpectraMax340PC384, Molecular Devices). Cell viability was expressed as the percentage of the control absorbance in the untreated cells after subtracting the appropriate background. The minimum lethal dose for 50% of the cells (MLD50) was determined and the selectivity index (SI) calculated as the ratio between cytotoxicity and activity.

[4] = tested on: P. berghei CQ-sensitive (NK65); test: Antimalarial suppressive test against P. berghei in mice; type: in vivo, P. berghei in Swiss mice; conditions: for % Reduction of parasitemia, 5th day, Exp.1 / Mean Parasitemia ± SD, 5th day, Exp.1 / % Reduction of parasitemia, 7th day, Exp.1 / Mean Parasitemia ± SD, 7th day, Exp.1 / % Reduction of parasitemia, 5th day, Exp.2 / Mean Parasitemia ± SD, 5th day, Exp.2 / % Reduction of parasitemia, 7th day, Exp.2 / Mean Parasitemia ± SD, 7th day, Exp.2: oral, 3 days; for % Reduction of parasitemia, 5th day, Exp.1 / Mean Parasitemia ± SD, 5th day, Exp.1 / % Reduction of parasitemia, 7th day, Exp.1 / Mean Parasitemia ± SD, 7th day, Exp.1: chloroquine 5 mg/kg, LQB223 100 mg/kg; for % Reduction of parasitemia, 5th day, Exp.1 / % Reduction of parasitemia, 5th day, Exp.2: day 5; for % Reduction of parasitemia, 5th day, Exp.1 / % Reduction of parasitemia, 7th day, Exp.1 / % Reduction of parasitemia, 5th day, Exp.2 / % Reduction of parasitemia, 7th day, Exp.2: versus non-treated mice; for Mean Parasitemia ± SD, 5th day, Exp.1 / Mean Parasitemia ± SD, 5th day, Exp.2: day 5 of infection; for % Reduction of parasitemia, 7th day, Exp.1 / % Reduction of parasitemia, 7th day, Exp.2: day 7; for Mean Parasitemia ± SD, 7th day, Exp.1 / Mean Parasitemia ± SD, 7th day, Exp.2: day 7 of infection; for % Reduction of parasitemia, 5th day, Exp.2 / Mean Parasitemia ± SD, 5th day, Exp.2 / % Reduction of parasitemia, 7th day, Exp.2 / Mean Parasitemia ± SD, 7th day, Exp.2: chloroquine 15 mg/kg, LQB223 50 mg/kg
Procedure: The antimalarial suppressive test in mice, as previously described, was slightly modified. Briefly, Swiss outbred adult female mice, 20±2 g weight, were inoculated with P. berghei CQ-sensitive (NK65) by intraperitoneal route, 1×10^5 freshly infected red blood cells (iRBC) per animal. Two to 24 h later, the mice were randomly distributed to be submitted to drug treatment by oral route, during three consecutive days, once a day; two control groups were used, one non treated and another treated with CQ (either 5 or 15 mg/kg).
The molecule LQB223, freshly diluted with 3% DMSO in water immediately before treatment, was given by gavage, in doses of 100 and 50 mg/kg in 200 µL volume per animal. Blood smears were prepared at days fifth and seventh after parasite inoculation, methanol-fixed, stained with Giemsa, and examined microscopically for parasitemia determination. […] Molecules reducing parasitemia by 30% or more were considered active.

[5] = tested on: P. falciparum CQ-resistant (W2 clone); conditions: ref [9], [10]; cited from earlier work
[6] = tested on: P. falciparum CQ-sensitive (3D7 strain); conditions: ref [9], [10]; cited from earlier work
[7] = W2, CQ-resistant P. falciparum, single curve printed in the picture, read-out: IC50 from dose response curve (Figure 3)
[8] = CQ-resistant W2, anti-HRPII test, three experiments, ≤10 active, 11–20 partially active, >20 inactive, read-out: IC50 (µg/mL) Mean ± SD, W2
[9] = CQ-sensitive 3D7, anti-HRPII test, three experiments, ≤10 active, 11–20 partially active, >20 inactive, read-out: IC50 (µg/mL) Mean ± SD, 3D7
[10] = BGM monkey kidney cells, MTT, minimal lethal dose for 50% of cells

- IC50 [1, 7]: 12.4 µg/mL (≈ 33 µM)
- IC50 [1, 8]: 10.2 ± 1.2 µg/mL (≈ 27.2 µM)
- IC50 [2, 9]: 7.8 ± 3 µg/mL (≈ 20.8 µM)
SMILES: Cc1ccc(S(=O)(=O)N2c3ccccc3[C@H]3CCc4ccccc4[C@H]32)cc1 (relative stereo) [LQB223]
- MDL50 (µg/mL) Mean ± SD [3, 10]: ≥1000 µg/mL
- % Reduction of parasitemia, 5th day, Exp.1 [4]: 67%
- Mean Parasitemia ± SD, 5th day, Exp.1 [4]: 0.15±0.2
- % Reduction of parasitemia, 7th day, Exp.1 [4]: 28%
- Mean Parasitemia ± SD, 7th day, Exp.1 [4]: 11±3
- % Reduction of parasitemia, 5th day, Exp.2 [4]: 30%
- Mean Parasitemia ± SD, 5th day, Exp.2 [4]: 1.2±0.5
- % Reduction of parasitemia, 7th day, Exp.2 [4]: 13%
- Mean Parasitemia ± SD, 7th day, Exp.2 [4]: 18.3±1.5
- antimalarial activity in vivo ([4]; mice infected with P. berghei): active in vivo

- IC50 [1, 8]: 2.9 ± 2.5 µg/mL (≈ 6.34 µM)
- IC50 [2, 9]: 3.8 ± 1 µg/mL (≈ 8.31 µM)
SMILES: Cc1ccc(S(=O)(=O)N2c3ccccc3[C@H]3COC4=C(C(=O)c5ccccc5C4=O)[C@H]32)cc1 (relative stereo) [LQB192]
- toxicity to BGM cells ([3]; BGM cells): toxic to BGM cells
- MDL50 (µg/mL) Mean ± SD [3, 10]: 68.7 ± 8.4 µg/mL

- IC50 [1, 8]: 0.63 ± 0.8 µg/mL (≈ 1.74 µM)
- IC50 [2, 9]: 0.25 ± 0.1 µg/mL (≈ 0.69 µM)
SMILES: COC(=O)c1ccc2c(c1)[C@H]1COC3=C(C(=O)c4ccccc4C3=O)[C@H]1O2 (relative stereo) [LQB221]
- toxicity to BGM cells ([3]; BGM cells): toxic to BGM cells
- MDL50 (µg/mL) Mean ± SD [3, 10]: 5.1 µg/mL

SMILES: CCN(CC)CCCC(C)Nc1ccnc2cc(Cl)ccc12 (stereo not drawn) [Chloroquine, chloroquine, reference compound]
- IC50 ([1]; W2, read-out: IC50 (µg/mL) Mean ± SD, W2): 0.138 µg/mL (≈ 0.431 µM)
- IC50 ([2]; 3D7, read-out: IC50 (µg/mL) Mean ± SD, 3D7): 0.03 µg/mL (≈ 0.0938 µM)
- % Reduction of parasitemia, 5th day, Exp.1 [4]: 100%
- Mean Parasitemia ± SD, 5th day, Exp.1 [4]: 0
- % Reduction of parasitemia, 7th day, Exp.1 [4]: 52%
- Mean Parasitemia ± SD, 7th day, Exp.1 [4]: 7.3±3
- % Reduction of parasitemia, 5th day, Exp.2 [4]: 100%
- Mean Parasitemia ± SD, 5th day, Exp.2 [4]: 0±0.0
- % Reduction of parasitemia, 7th day, Exp.2 [4]: 100%
- Mean Parasitemia ± SD, 7th day, Exp.2 [4]: 0±0.0
- IC50, W2 clone, previous work [5]: 0.07 µg/mL (≈ 0.219 µM)
- IC50, 3D7 strain, previous work [6]: 0.0035 µg/mL (≈ 0.0109 µM)

- IC50 [1, 8]: 1.8 ± 1.6 µg/mL (≈ 4.97 µM)
- IC50 [2, 9]: 3.5 ± 0.4 µg/mL (≈ 9.66 µM)
SMILES: COc1cc(C=O)cc2c1O[C@@H]1C3=C(OC[C@H]21)C(=O)c1ccccc1C3=O (relative stereo) [LQB222]
- toxicity to BGM cells ([3]; BGM cells): toxic to BGM cells
- MDL50 (µg/mL) Mean ± SD [3, 10]: ≤3.9 µg/mL

SMILES: O=C1C2=C(C(=O)c3ccccc31)[C@H]1Oc3ccccc3[C@H]1CO2 (relative stereo) [LQB118]
- IC50 [1, 8]: 0.17 ± 0.1 µg/mL (≈ 0.559 µM)
- IC50 [2, 9]: 0.16 ± 0.03 µg/mL (≈ 0.526 µM)
- toxicity to BGM cells [3]: toxic to BGM cells
- MDL50 (µg/mL) Mean ± SD ([3]; green monkey): ≤3.9 µg/mL

- IC50 [1, 7]: 0.23 µg/mL (≈ 0.688 µM)
- IC50 [1, 8]: 0.4 ± 0.2 µg/mL (≈ 1.2 µM)
- IC50 [2, 9]: 0.21 ± 0.09 µg/mL (≈ 0.628 µM)
SMILES: COc1ccc2c(c1)O[C@@H]1C3=C(OC[C@H]21)C(=O)c1ccccc1C3=O (relative stereo) [LQB216]
- MDL50 (µg/mL) Mean ± SD [3, 10]: 24.2 ± 3 µg/mL

— article PMC3961230, “Theoretical and Experimental Studies of New Modified Isoflavonoids as Potential Inhibitors of Topoisomerase I from Plasmodium falciparum” (PLoS ONE, 2014)
